Source: patent US20160243021A1, “Collagen-Boosting Compositions And Methods” (ELC MANAGEMENT LLC, priority 2015, published 2016)

Legend:
Type in all cases: cell-based, human
adult NHDFs [1] = assay: Collagen-boosting assay, Example 3 (PIP ELISA; Argireline); conditions: 3 days
Protocol: In this assay, Argireline was tested for its efficacy in boosting collagen synthesis in NHDFs. TGFβ was run as a positive control.
Adult NHDFs were seeded and grown to confluence in a 96 well plate prior to treatment with Argireline at concentrations of 0.001, 0.01, 0.1 and 1% (v/v) in media (negative control) or with 10 ng/ml TGFβ (positive control) in media.
The plate was incubated for 3 days at 37° C./5% CO2. Supernatants were harvested and stored at −80° C. in siliconized tubes until the PIP ELISA was performed, as described in Example 1. For this assay, supernatants were diluted 1:40.

adult NHDFs [2] = assay: Collagen-boosting assay, Example 4 (PIP ELISA; Mitostime in combination with Argireline); conditions: 10 ng/ml; 3 days
Protocol: Mitostime also was tested in combination with Argireline for efficacy in boosting collagen synthesis in NHDFs. TGFβ, at 10 ng/ml, was run as a positive control. Adult NHDFs were seeded and grown to confluence in a 96 well plate prior to treatment with Mitostime at 0.3%/Argireline peptide at 0.00005%; Mitostime at 0.15%/Argireline peptide at 0.000025%; and Mitostime at 0.075%/Argireline peptide at 0.0000125%. The plate was incubated for 3 days at 37° C./5% CO2. Supernatants were harvested and stored at −80° C. in siliconized tubes until the PIP ELISA was performed as outlined in Example 1. For this assay, supernatants were diluted 1:200. […] TGFβ increased collagen synthesis by 23%.

adult NHDF cells = assay: Collagen-boosting assay, Example 5 (PIP ELISA; NXP-75); conditions: 10 ng/ml; 3 days
Protocol: In this assay, NXP-75 was tested for its efficacy in boosting collagen synthesis in NHDFs. TGFβ (10 ng/ml) was run as a positive control. Adult NHDF cells were seeded and grown to confluence in a 96 well flat bottom plate prior to treatment. NXP-75 powder was prepared at the following dilutions: 0.0001, 0.001, 0.01 and 0.1% (w/v) in media (negative control). The plate was incubated for 3 days at 37° C./5% CO2. Supernatants were harvested and stored at −80° C. in siliconized tubes until the PIP ELISA was performed. For this assay, supernatants were diluted 1:200. […] TGFβ enhanced collagen synthesis by 20% compared with media.

adult NHDFs [3] = assay: Collagen-boosting assay, Example 4 (PIP ELISA; Mitostime); conditions: 10 ng/ml; 3 days
Protocol: Mitostime was tested for its collagen-boosting efficacy in NHDFs. TGFβ, at 10 ng/ml, was run as a positive control. Adult NHDFs were seeded and grown to confluence in a 96 well plate prior to treatment with mitostime 0.075%, 0.15% and 0.3% (w/v). The plate was incubated for 3 days at 37° C./5% CO2. Supernatants were harvested and stored at −80° C. in siliconized tubes until the PIP ELISA was performed as outlined in Example 1. For this assay, supernatants were diluted 1:200. […] TGFβ increased collagen synthesis by 27% (p=0.0001).

Substance	increase in collagen synthesis compared with media (adult NHDFs [1]; 0.01%)	increase in collagen synthesis compared with media (adult NHDFs [1]; 0.1% (v/v))	increase in collagen levels (adult NHDFs [1]; 10 ng/ml)	increase in collagen synthesis (adult NHDFs [2])	boost of collagen synthesis compared with media (adult NHDF cells)	increase in collagen synthesis compared with media (adult NHDFs [3])
acetyl hexapeptide-3 [Argireline]	29%	76%				
TGFβ			147%	23%	20%	27%
